Source: patent US10581022B2, “Polymerizable liquid crystal compound, composition, liquid crystal polymerization film-kind thereof and use thereof” (JNC CORPORATION, priority 2015, dated 2020)

Assay: Solubility of compound in solvent
Type: physicochemical
Design: key: Good: represents that the compound was completely dissolved; Poor: represents that an insoluble matter remained
Details: 40° C., after 30 minutes, visual
Procedure: With regard to various solvents, a specific amount of compound (1-1-1-1) was added to various solvents each, and the resulting mixture was warmed in warm water at 40° C., and an aspect after 30 minutes was visually confirmed. A similar method was tried in compound (1-1-2-1), compound (C-1) and compound (C-2) in place of compound (1-1-1-1).
An amount of the compound added as described in Table 4 is expressed in terms of a relative value when a total weight of the solvent and the compound is taken as 100% by weight. A term “Good” in Table 4 represents that the compound was completely dissolved, and a term “Poor” in Table 4 represents that an insoluble matter remained.

SMILES | solubility in 2-acetoxy-1-methoxypropane (15% by weight of compound) | solubility in 4-methyl-2-pentanone (15% by weight of compound) | solubility in cyclohexanone (15% by weight of compound) | solubility in methoxybenzene (15% by weight of compound) | solubility in 2-acetoxy-1-methoxypropane (30% by weight of compound) | solubility in 4-methyl-2-pentanone (30% by weight of compound) | solubility in cyclohexanone (30% by weight of compound) | solubility in methoxybenzene (30% by weight of compound)
C=CC(=O)OCCCCOc1ccc(OC(=O)C2CCC(C(=O)Oc3ccc(OC(=O)C4CCC(C(=O)Oc5ccc(OCCCCOC(=O)C=C)cc5)CC4)c(C=NNc4nc5ccccc5s4)c3)CC2)cc1 (centres unmarked) [Compound (C-2)] | Poor | Poor | Good | Good | Poor | Poor | Poor | Poor
C=CC(=O)OCCCCCCOc1ccc(CCC(=O)O[C@H]2CC[C@H](C(=O)Oc3ccc(OC(=O)[C@H]4CC[C@H](OC(=O)CCc5ccc(OCCCCCCOC(=O)C=C)cc5)CC4)c4nc(-c5ccccc5)cnc34)CC2)cc1 [Compound (1-1-1-1)] | Poor | Poor | Good | Good | Poor | Poor | Good | Good
C=CC(=O)OCCCCCCOc1ccc(CCC(=O)O[C@H]2CC[C@H](C(=O)Oc3ccc(OC(=O)[C@H]4CC[C@H](OC(=O)CCc5ccc(OCCCCCCOC(=O)C=C)cc5)CC4)c4nc(-c5ccccc5)c(C)nc34)CC2)cc1 [Compound (1-1-2-1)] | Good | Good | Good | Good | Poor | Poor | Good | Good
C=CC(=O)OCCCCOc1ccc(OC(=O)[C@H]2CC[C@H](C(=O)Oc3ccc(OC(=O)[C@H]4CC[C@H](C(=O)Oc5ccc(OCCCCOC(=O)C=C)cc5)CC4)c4sc(-c5ccccc5)nc34)CC2)cc1 [Compound (C-1)] | Poor | Poor | Good | Good | Poor | Poor | Poor | Poor
